Counter-ions that a name gives are not always drawn.
Key:
[1] = system: CCI-induced static allodynia; test: CCI-induced static allodynia, paw withdrawal threshold to von Frey hairs; type: in vivo, rat; conditions: for time of peak antiallodynic actions: post administration, CCI-induced static model; for blockade of static allodynia: alone; for minimum effective dose (MED), blockade of maintenance of static allodynia: administered alone, gabapentin p.o., sildenafil s.c.
Protocol: Male Sprague Dawley rats (200-250 g), obtained from Charles River, (Margate, Kent, U.K.) were housed in groups of 6. All animals were kept under a 12 h light/dark cycle (lights on at 07 h 00 min) with food and water ad libitum. All experiments were carried out by an observer unaware of drug treatments.
Animals were anaesthetised with isoflurane. The sciatic nerve was ligated as previously described by Bennett and Xie, 1988. Animals were placed on a homeothermic blanket for the duration of the procedure. After surgical preparation the common sciatic nerve was exposed at the middle of the thigh by blunt dissection through biceps femoris. Proximal to the sciatic trifurcation, about 7 mm of nerve was freed of adhering tissue and 4 ligatures (4-0 silk) were tied loosely around it with about 1 mm spacing. The incision was closed in layers and the wound treated with topical antibiotics.
Dose-responses to gabapentin and sildenafil were first performed alone in the CCI model. Combinations were examined following a fixed ratio design. A dose-response to each fixed dose ratio of the combination was performed. On each test day, baseline paw withdrawal thresholds (PWT) to von Frey hairs and paw withdrawal latencies (PWL) to a cotton bud stimulus were determined prior to drug treatment. Gabapentin was administered p.o. directly followed by s.c. administration of sildenafil and PWT and PWL re-examined for up to 5 h. The data are expressed at the 2 h time point for both the static and dynamic data as this timepoint represent the peak antiallodynic effects.
Static allodynia was measured using Semmes-Weinstein von Frey hairs (Stoelting, Illinois, U.S.A.). Animals were placed into wire mesh bottom cages allowing access to the underside of their paws. Animals were habituated to this environment prior to the start of the experiment. Static allodynia was tested by touching the plantar surface of the animals right hind paw with von Frey hairs in ascending order of force (0.7, 1.2, 1.5, 2, 3.6, 5.5, 8.5, 11.8, 15.1 and 29 g) for up to 6 sec. Once a withdrawal response was established, the paw was re-tested, starting with the next descending von Frey hair until no response occurred. The highest force of 29 g lifted the paw as well as eliciting a response, thus represented the cut off point. The lowest amount of force required to elicit a response was recorded as the PWT in grams.

[2] = system: CCI-induced dynamic allodynia; test: CCI-induced dynamic allodynia, paw withdrawal latency to cotton bud stimulus; type: in vivo, rat; conditions: for blockade of dynamic allodynia: alone; for minimum effective dose (MED), blockade of maintenance of dynamic allodynia: administered alone, gabapentin p.o., sildenafil s.c.; for time of peak antiallodynic actions: post administration, CCI-induced dynamic model
Protocol: Male Sprague Dawley rats (200-250 g), obtained from Charles River, (Margate, Kent, U.K.) were housed in groups of 6. All animals were kept under a 12 h light/dark cycle (lights on at 07 h 00 min) with food and water ad libitum. All experiments were carried out by an observer unaware of drug treatments. Animals were anaesthetised with isoflurane. The sciatic nerve was ligated as previously described by Bennett and Xie, 1988. Animals were placed on a homeothermic blanket for the duration of the procedure. After surgical preparation the common sciatic nerve was exposed at the middle of the thigh by blunt dissection through biceps femoris. Proximal to the sciatic trifurcation, about 7 mm of nerve was freed of adhering tissue and 4 ligatures (4-0 silk) were tied loosely around it with about 1 mm spacing. The incision was closed in layers and the wound treated with topical antibiotics. […] Combinations were examined following a fixed ratio design. A dose-response to each fixed dose ratio of the combination was performed. On each test day, baseline paw withdrawal thresholds (PWT) to von Frey hairs and paw withdrawal latencies (PWL) to a cotton bud stimulus were determined prior to drug treatment. […] Dynamic allodynia was assessed by lightly stroking the plantar surface of the hind paw with a cotton bud. Care was taken to perform this procedure in fully habituated rats that were not active to avoid recording general motor activity. At least three measurements were taken at each time point the mean of which represented the paw withdrawal latency (PWL). […] Thus 15 s effectively represents no withdrawal. A withdrawal response was often accompanied with repeated flinching or licking of the paw. Dynamic allodynia was considered to be present if animals responded to the cotton stimulus before 8 s of stroking.

[3] = system: CCI-induced static allodynia; test: CCI-induced static allodynia, paw withdrawal threshold to von Frey hairs; type: in vivo, rat; conditions: Table 1; ratio 1:0, pregabalin 30 mg/kg alone

SMILES: CCC[C@@H](C)C[C@H](N)CC(=O)O.Cl
- melting point: 142.5 to 142.7 °C

SMILES: CCCC(C)(C)CC(CN)C(=O)O.Cl (centres unmarked)
- melting point: 229.5 to 231 °C

SMILES: CCCC[C@@H](C)C[C@H](N)CC(=O)O (as salt: hydrochloride)
- melting point: 142.5 to 143.3 °C

SMILES: CCC[C@@H](C)C[C@H](CN)C(=O)O (as salt: hydrochloride)
- melting point: 226.3 to 228 °C

SMILES: CCCC(C)(C)C[C@H](N)CC(=O)O (as salt: hydrochloride) (hydrate or solvate)
- melting point: 194.2 to 195.2 °C

SMILES: CCCOc1ccc(S(=O)(=O)N2CCN(CC)CC2)cc1-c1nc2c(CC)n(Cc3ccccn3)nc2c(=O)[nH]1 [Compound AA, 3-Ethyl-5-[5-(4-ethyl-piperazine-1-sulfonyl)-2-propoxy-phenyl]-2-pyridin-2-ylmethyl-2,6-dihydro-pyrazolo[4,3-d]pyrimidin-7-one]
- % reversal of allodynia ([1]; Table 2, ratio 0:1, 30 mg/kg alone (dose column headed Sildenafil)): 50%
- time of peak antiallodynic actions [1]: 2 h

SMILES: NCC1(CC(=O)O)CCCCC1 [Gabapentin, 1-(aminomethyl)-cyclohexylacetic acid]
- blockade of static allodynia ([1]; 100 mg/kg p.o.): complete blockade
- % reversal of allodynia ([1]; Table 2, ratio 1:0, gabapentin 100 mg/kg alone): 100%
- minimum effective dose (MED), blockade of maintenance of static allodynia [1]: 10 mg/kg
- time of peak antiallodynic actions [1]: 2 h
- blockade of dynamic allodynia ([2]; 100 mg/kg p.o.): complete blockade
- minimum effective dose (MED), blockade of maintenance of dynamic allodynia [2]: 10 mg/kg
- time of peak antiallodynic actions [2]: 2 h

SMILES: CC(C)C[C@H](CN)CC(=O)O [Pregabalin, (S)-(+)-4-amino-3-(2-methylpropyl)butanoic acid]
- % reversal of allodynia [3]: 100%
- time of peak antiallodynic actions [1]: 2 h

SMILES: CCCc1nn(C)c2c(=O)[nH]c(-c3cc(S(=O)(=O)N4CCN(C)CC4)ccc3OCC)nc12 [Sildenafil, 5-[2-ethoxy-5-(4-methyl-1-piperazinylsulphonyl)phenyl]-1-methyl-3-n-propyl-1,6-dihydro-7H-pyrazolo[4,3-d]pyrimidin-7-one]
- blockade of static allodynia ([1]; 30 mg/kg s.c.): ~60%
- % reversal of allodynia ([1]; Table 1, ratio 0:1, sildenafil 30 mg/kg alone): 50%
- minimum effective dose (MED), blockade of maintenance of static allodynia [1]: 10 mg/kg
- time of peak antiallodynic actions [1]: 2 h
- blockade of dynamic allodynia ([2]; 30 mg/kg s.c. (MED)): 25%
- minimum effective dose (MED), blockade of maintenance of dynamic allodynia [2]: 30 mg/kg
- time of peak antiallodynic actions [2]: 2 h

Reference: patent US7419981B2, “Synergistic combinations of an alpha-2-delta ligand and a cGMP phosphodieterse 5 inhibitor” (Pfizer Inc., priority 2002, dated 2008)
